Laboratory results reported in patent US9695155B2, “Herbicidal substituted pyrimidinyloxy benzene compounds” (E. I. DU PONT DE NEMOURS AND COMPANY, priority 2013, dated 2017).

Columns and labels:
Assay in all cases: Test E preemergence
corn = assay type: in vivo, Zea mays; conditions: for Corn plant response rating: scale 0 to 100 (0 no effect, 100 complete control)
From the text: (§1) Seeds of plant species selected from corn (Zea mays), soybean (Glycine max), velvetleaf (Abutilon theophrasti), lambsquarters (Chenopodium album), wild poinsettia (Euphorbia heterophylla), palmer pigweed (Amaranthus palmeri), waterhemp (common waterhemp, Amaranthus rudis), surinam grass (Brachiaria decumbens), large (Lg) crabgrass (Digitaria sanguinalis), Brazilian crabgrass (Digitaria horizontalis), fall panicum (Panicum dichotomiflorum), giant foxtail (Setaria faberii), green foxtail (Setaria viridis), goosegrass (Eleusine indica), johnsongrass (Sorghum halepense), ragweed (common ragweed, Ambrosia elatior), barnyardgrass (Echinochloa crus-galli), sandbur (southern sandbur, Cenchrus echinatus), arrowleaf sida (Sida rhombifolia), Italian ryegrass (Lolium multiflorum), dayflower (Virginia (VA) dayflower, Commelina virginica), field bindweed (Convolvulus arvensis), morningglory (Ipomoea coccinea), nightshade (eastern black nightshade, Solanum ptycanthum), kochia (Kochia scoparia), yellow nutsedge (Cyperus esculentus), cocklebur (common cocklebur, Xanthium strumarium), smartweed (ladysthumb smartweed, and hairy beggarticks (Bidens pilosa), were planted into a silt loam soil and treated preemergence with test chemicals formulated in a non-phytotoxic solvent mixture which included a surfactant.
(§2) At the same time, plants from these crop and weed species and also horseweed (Canada horseweed, Conyza canadensis), waterhemp_RES1, (ALS & Triazine resistant common waterhemp, Amaranthus rudis), and waterhemp_RES2, (ALS & HPPD resistant common waterhemp, Amaranthus rudis) were planted in pots containing Redi-Earth® planting medium (Scotts Company, 14111 Scottslawn Road, Marysville, Ohio 43041) comprising spaghnum peat moss, vermiculite, wetting agent and starter nutrients were treated with postemergence applications of test chemicals formulated in the same manner. Plants ranged in height from 2 to 18 cm for postemergence treatments (1- to 4-leaf stage). Treated plants and controls were maintained in a greenhouse for 14 to 21 days, after which time all species were compared to controls and visually evaluated. Plant response ratings, summarized in Table E, are based on a scale of 0 to 100 where 0 is no effect and 100 is complete control. A dash (-) response means no test result.

velvetleaf = assay type: in vivo, Abutilon theophrasti; conditions: for Velvetleaf plant response rating: scale 0 to 100 (0 no effect, 100 complete control)
From the text: as §1, §2

lambsquarters = assay type: in vivo, Chenopodium album; conditions: for Lambsquarters plant response rating: scale 0 to 100 (0 no effect, 100 complete control)
From the text: as §1, §2

palmer pigweed = assay type: in vivo, Amaranthus palmeri; conditions: for Pigweed, Palmer plant response rating: scale 0 to 100 (0 no effect, 100 complete control)
From the text: as §1, §2

waterhemp = assay type: in vivo, Amaranthus rudis; conditions: for Waterhemp plant response rating: scale 0 to 100 (0 no effect, 100 complete control)
From the text: as §1, §2

Brazilian crabgrass = assay type: in vivo, Digitaria horizontalis; conditions: for Crabgrass, Brazil plant response rating: scale 0 to 100 (0 no effect, 100 complete control)
From the text: as §1, §2

johnsongrass = assay type: in vivo, Sorghum halepense; conditions: for Johnsongrass plant response rating: scale 0 to 100 (0 no effect, 100 complete control)
From the text: as §1, §2

arrowleaf sida = assay type: in vivo, Sida rhombifolia; conditions: for Arrowleaf Sida plant response rating: scale 0 to 100 (0 no effect, 100 complete control)
Method in brief: (§3)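 Response was scored visually on a 0-100 scale (100 = complete control) versus controls after 14 to 21 days in the greenhouse. Test chemicals, formulated with surfactant in a non-phytotoxic solvent mixture, had been applied preemergence to seeds in silt loam soil or postemergence to 1- to 4-leaf plants in potting medium.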

field bindweed = assay type: in vivo, Convolvulus arvensis; conditions: for Field Bindweed plant response rating: scale 0 to 100 (0 no effect, 100 complete control)
Method in brief: as §3

yellow nutsedge = assay type: in vivo, Cyperus esculentus; conditions: for Nutsedge, Yellow plant response rating: scale 0 to 100 (0 no effect, 100 complete control)
From the text: as §1, §2

[1] = 8 g ai/ha, scale 0 to 100, 0 is no effect, 100 is complete control
[2] = 125 g ai/ha, scale 0 to 100, 0 no effect, 100 complete control
[3] = Preemergence, 62 g ai/ha, scale 0 to 100, 0 no effect, 100 complete control
[4] = preemergence, 125 g ai/ha, scale 0 to 100, 0 no effect, 100 complete control
[5] = 250 g ai/ha, scale 0 to 100, 0 no effect, 100 complete control

Clc1cnc(Oc2ccccc2-n2cc(Br)cn2)nc1 [Compound 7, 2-[2-(4-bromo-1H-pyrazol-1-yl)phenoxy]-5-chloropyrimidine]
100: Plant response rating, Velvetleaf (velvetleaf; [2]) | Plant response rating, Lambsquarters (lambsquarters; [2]) | Pigweed, Palmer plant response rating (palmer pigweed; 62 g ai/ha) | Plant response rating, Pigweed, Palmer (palmer pigweed; [2]) | Waterhemp plant response rating (waterhemp; 16 g ai/ha) | Waterhemp plant response rating (waterhemp; 31 g ai/ha) | Waterhemp plant response rating (waterhemp; 62 g ai/ha) | Plant response rating, Waterhemp (waterhemp; [2]) | Crabgrass, Brazil plant response rating (Brazilian crabgrass; 62 g ai/ha) | Plant response rating, Crabgrass, Brazil (Brazilian crabgrass; [2])
98: Velvetleaf plant response rating (velvetleaf; 62 g ai/ha) | Lambsquarters plant response rating (lambsquarters; 62 g ai/ha)
85: Pigweed, Palmer plant response rating (palmer pigweed; 31 g ai/ha)
65: Velvetleaf plant response rating (velvetleaf; 31 g ai/ha)
95: Pigweed, Palmer plant response rating (palmer pigweed; 16 g ai/ha) | Plant response rating, Waterhemp (waterhemp; [1])
20: Plant response rating, Velvetleaf (velvetleaf; [1])
0: Plant response rating, Corn (corn; [1]) | Corn plant response rating (corn; 16 g ai/ha) | Corn plant response rating (corn; 31 g ai/ha) | Corn plant response rating (corn; 62 g ai/ha) | Plant response rating, Corn (corn; [2]) | Plant response rating, Lambsquarters (lambsquarters; [1]) | Lambsquarters plant response rating (lambsquarters; 16 g ai/ha) | Plant response rating, Pigweed, Palmer (palmer pigweed; [1]) | Plant response rating, Crabgrass, Brazil (Brazilian crabgrass; [1]) | Crabgrass, Brazil plant response rating (Brazilian crabgrass; 16 g ai/ha) | Plant response rating, Johnsongrass (johnsongrass; [1]) | Johnsongrass plant response rating (johnsongrass; 16 g ai/ha) | Johnsongrass plant response rating (johnsongrass; 31 g ai/ha) | Plant response rating, Arrowleaf Sida (arrowleaf sida; 8 g ai/ha, preemergence, scale 0 to 100, 0 is no effect, 100 is complete control) | Arrowleaf Sida plant response rating (arrowleaf sida; 16 g ai/ha, preemergence) | Plant response rating, Field Bindweed (field bindweed; [1]) | Field Bindweed plant response rating (field bindweed; 16 g ai/ha) | Field Bindweed plant response rating (field bindweed; 31 g ai/ha) | Field Bindweed plant response rating (field bindweed; 62 g ai/ha) | Plant response rating, Field Bindweed (field bindweed; [2]) | Plant response rating, Nutsedge, Yellow (yellow nutsedge; [1]) | Nutsedge, Yellow plant response rating (yellow nutsedge; 16 g ai/ha) | Nutsedge, Yellow plant response rating (yellow nutsedge; 31 g ai/ha) | Nutsedge, Yellow plant response rating (yellow nutsedge; 62 g ai/ha) | Plant response rating, Nutsedge, Yellow (yellow nutsedge; [2])
25: Arrowleaf Sida plant response rating (arrowleaf sida; 31 g ai/ha, preemergence)
50: Velvetleaf plant response rating (velvetleaf; 16 g ai/ha) | Plant response rating, Johnsongrass (johnsongrass; [2]) | Plant response rating, Arrowleaf Sida (arrowleaf sida; [3])
75: Lambsquarters plant response rating (lambsquarters; 31 g ai/ha)
40: Johnsongrass plant response rating (johnsongrass; 62 g ai/ha)
80: Crabgrass, Brazil plant response rating (Brazilian crabgrass; 31 g ai/ha) | Plant response rating, Arrowleaf Sida (arrowleaf sida; [4])

N#Cc1cccc(Oc2ncc(Cl)cn2)c1-n1cc(C(F)(F)F)cn1 [Compound 58, 3-[(5-chloro-2-pyrimidinyl)oxy]-2-[4-(trifluoromethyl)-1H-pyrazol-1-yl]benzonitrile]
35: Johnsongrass plant response rating (johnsongrass; 31 g ai/ha)
80: Arrowleaf Sida plant response rating (arrowleaf sida; 16 g ai/ha, preemergence) | Plant response rating, Nutsedge, Yellow (yellow nutsedge; [5])
70: Plant response rating, Corn (corn; [5]) | Velvetleaf plant response rating (velvetleaf; 31 g ai/ha) | Field Bindweed plant response rating (field bindweed; 62 g ai/ha)
20: Field Bindweed plant response rating (field bindweed; 31 g ai/ha)
95: Johnsongrass plant response rating (johnsongrass; 62 g ai/ha) | Plant response rating, Johnsongrass (johnsongrass; [2])
5: Corn plant response rating (corn; 31 g ai/ha) | Nutsedge, Yellow plant response rating (yellow nutsedge; 31 g ai/ha)
25: Nutsedge, Yellow plant response rating (yellow nutsedge; 62 g ai/ha)
40: Corn plant response rating (corn; 62 g ai/ha) | Velvetleaf plant response rating (velvetleaf; 16 g ai/ha)
60: Plant response rating, Nutsedge, Yellow (yellow nutsedge; [2])
90: Velvetleaf plant response rating (velvetleaf; 62 g ai/ha)
0: Corn plant response rating (corn; 16 g ai/ha) | Field Bindweed plant response rating (field bindweed; 16 g ai/ha) | Nutsedge, Yellow plant response rating (yellow nutsedge; 16 g ai/ha)
98: Lambsquarters plant response rating (lambsquarters; 16 g ai/ha) | Lambsquarters plant response rating (lambsquarters; 31 g ai/ha) | Lambsquarters plant response rating (lambsquarters; 62 g ai/ha) | Plant response rating, Lambsquarters (lambsquarters; [2]) | Plant response rating, Lambsquarters (lambsquarters; [5]) | Waterhemp plant response rating (waterhemp; 16 g ai/ha) | Plant response rating, Field Bindweed (field bindweed; [2])
100: Plant response rating, Velvetleaf (velvetleaf; [2]) | Plant response rating, Velvetleaf (velvetleaf; [5]) | Pigweed, Palmer plant response rating (palmer pigweed; 16 g ai/ha) | Pigweed, Palmer plant response rating (palmer pigweed; 31 g ai/ha) | Pigweed, Palmer plant response rating (palmer pigweed; 62 g ai/ha) | Plant response rating, Pigweed, Palmer (palmer pigweed; [2]) | Plant response rating, Pigweed, Palmer (palmer pigweed; [5]) | Waterhemp plant response rating (waterhemp; 31 g ai/ha) | Waterhemp plant response rating (waterhemp; 62 g ai/ha) | Plant response rating, Waterhemp (waterhemp; [2]) | Plant response rating, Waterhemp (waterhemp; [5]) | Crabgrass, Brazil plant response rating (Brazilian crabgrass; 16 g ai/ha) | Crabgrass, Brazil plant response rating (Brazilian crabgrass; 31 g ai/ha) | Crabgrass, Brazil plant response rating (Brazilian crabgrass; 62 g ai/ha) | Plant response rating, Crabgrass, Brazil (Brazilian crabgrass; [2]) | Plant response rating, Crabgrass, Brazil (Brazilian crabgrass; [5]) | Plant response rating, Johnsongrass (johnsongrass; [5]) | Arrowleaf Sida plant response rating (arrowleaf sida; 31 g ai/ha, preemergence) | Plant response rating, Arrowleaf Sida (arrowleaf sida; [3]) | Plant response rating, Arrowleaf Sida (arrowleaf sida; [4]) | Plant response rating, Arrowleaf Sida (arrowleaf sida; preemergence, 250 g ai/ha, scale 0 to 100, 0 no effect, 100 complete control) | Plant response rating, Field Bindweed (field bindweed; [5])
65: Plant response rating, Corn (corn; [2])
